# Experimental data taken from patent US9399145B2, “Nanoscale neuromodulating platform for retina neuron activation apparatus and method” (The Board of Trustees of the University of Illinois, priority 2005, dated 2016).
# Assays:
# [1] = molecular target: T1, α1β2γ2 GABAARs (rat α1, rat β2 and human γ2S) (UniProt P18507+P62813+P63138); assay: Two-electrode voltage clamp of α1β2γ2 GABAAR-expressing Xenopus oocytes; type: cell-based; conditions: for electrophysiological activity of propofol analogs (FIG. 59), words: Xenopus oocyte expression system; for potentiation of the GABA response: co-applied 3 μM GABA, MPC088 1 μM, MPD021 10 or 100 μM, MPC100 10 μM
# T1 construct: expressed in transfected cells; host or cells: Xenopus laevis oocytes
# T1 sequence (P62813 28-455): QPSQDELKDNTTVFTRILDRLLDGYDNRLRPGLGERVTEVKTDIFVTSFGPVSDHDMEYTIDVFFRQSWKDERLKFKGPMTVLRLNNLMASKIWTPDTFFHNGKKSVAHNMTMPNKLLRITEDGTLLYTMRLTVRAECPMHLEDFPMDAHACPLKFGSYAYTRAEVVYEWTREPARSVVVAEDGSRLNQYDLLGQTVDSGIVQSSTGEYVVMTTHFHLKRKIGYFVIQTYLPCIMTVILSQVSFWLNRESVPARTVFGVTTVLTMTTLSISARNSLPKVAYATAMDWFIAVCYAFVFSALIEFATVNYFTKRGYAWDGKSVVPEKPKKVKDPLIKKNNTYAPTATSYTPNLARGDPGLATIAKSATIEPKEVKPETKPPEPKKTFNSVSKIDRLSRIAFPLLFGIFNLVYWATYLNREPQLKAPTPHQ
# T1 sequence (P63138 25-474 limits assumed): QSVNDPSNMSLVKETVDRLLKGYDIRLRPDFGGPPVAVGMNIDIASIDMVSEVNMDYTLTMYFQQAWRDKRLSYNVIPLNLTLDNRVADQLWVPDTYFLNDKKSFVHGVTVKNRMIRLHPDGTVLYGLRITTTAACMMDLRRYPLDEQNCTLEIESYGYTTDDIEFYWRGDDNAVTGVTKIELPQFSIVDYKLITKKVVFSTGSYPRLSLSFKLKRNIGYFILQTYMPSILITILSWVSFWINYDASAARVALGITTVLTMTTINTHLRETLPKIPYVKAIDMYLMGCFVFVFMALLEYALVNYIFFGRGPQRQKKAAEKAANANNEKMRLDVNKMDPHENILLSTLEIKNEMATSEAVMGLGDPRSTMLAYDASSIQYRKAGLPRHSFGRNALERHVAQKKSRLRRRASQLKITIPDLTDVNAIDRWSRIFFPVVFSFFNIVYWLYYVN
# T1 sequence (P18507 40-467 isoform P18507-1 limits assumed): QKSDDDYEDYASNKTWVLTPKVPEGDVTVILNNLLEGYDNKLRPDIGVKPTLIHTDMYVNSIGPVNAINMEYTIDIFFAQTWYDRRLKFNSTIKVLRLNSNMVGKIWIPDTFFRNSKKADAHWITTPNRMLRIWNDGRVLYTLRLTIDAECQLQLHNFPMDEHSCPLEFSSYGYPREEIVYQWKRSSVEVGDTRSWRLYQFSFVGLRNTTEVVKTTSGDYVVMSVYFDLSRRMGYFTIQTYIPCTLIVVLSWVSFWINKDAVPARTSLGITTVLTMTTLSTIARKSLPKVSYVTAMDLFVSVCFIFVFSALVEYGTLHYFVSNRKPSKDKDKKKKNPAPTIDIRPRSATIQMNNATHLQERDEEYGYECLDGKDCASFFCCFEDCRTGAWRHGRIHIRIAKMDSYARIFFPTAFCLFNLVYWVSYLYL
# Excerpt: Purple and gray bars indicate periods of presentation of UV light (purple) and high-intensity visible light (High-Vis) (gray), respectively. […] These amplitude determination conditions are denoted by numbers beneath the waveform in FIG. 35d.
# In each of the MPC088 experiments, the cis-dominant form was generated by UV light during static bathing. […] Numbers beneath the waveform in FIG. 2(c) denote amplitude determination conditions for that experiment.
# (§1) Oocytes expressing α1β2γ2 receptors (rat α1, rat β2 and human γ2S) were prepared and studied by two-electrode voltage-clamp recording^58 (holding potential: −70 mV; amplifier: GeneClamp500B; Axon Instruments, Foster City, Calif.). Unless otherwise indicated, oocytes were superfused with Ringer solution (physiological saline) at a rate of ˜1 mL/min. The experiments of FIGS. 35d-e, 36c-e and 47 involved periods of static bathing, i.e., halted superfusion. The γ2(A79C) subunit was prepared by site-directed mutagenesis. Oocyte electrophysiological experiments were carried out in room light. A UV light-emitting diode (peak wavelength: 365 nm; Hamamatsu Photonics, Japan) and a microscope illuminator (white light; Schott Fostec, Auburn, N.Y.) provided UV and visible stimulating light. As measured at the position of the oocyte, the intensity of the UV light at 365 nm was 220 μW/mm^2. At 440 nm, the nominal strength of the visible (white) light (referred to as high-intensity visible light) was 28 μW/mm^2, and that of the ambient room illumination was 0.045 μW/mm^2. In all experiments, low-intensity visible light from the microscope illuminator (3 μW/mm^2 at 440 nm) was present at all times except those involving high-intensity visible illumination. Electrophysiological data were obtained using Clampex 8.2 (Axon Instruments), analyzed using Clampfit 10.0 (Axon Instruments) and OriginPro7.5 (OriginLab, Northampton, Mass.). All statistical analysis employed a two-sample t-test.
# GABAc receptors = molecular target: T2, GABAc receptors (Homo sapiens, UniProt P24046); assay: Two-electrode voltage clamp of GABAc-expressing Xenopus oocytes; type: cell-based; conditions: for Hill coefficient n: Hill fit of normalized peak amplitudes; for EC50: Hill fit of peak amplitudes normalized to saturating muscimol response
# T2 construct: expressed in transfected cells; host or cells: Xenopus oocytes
# T2 sequence (P24046 22-479): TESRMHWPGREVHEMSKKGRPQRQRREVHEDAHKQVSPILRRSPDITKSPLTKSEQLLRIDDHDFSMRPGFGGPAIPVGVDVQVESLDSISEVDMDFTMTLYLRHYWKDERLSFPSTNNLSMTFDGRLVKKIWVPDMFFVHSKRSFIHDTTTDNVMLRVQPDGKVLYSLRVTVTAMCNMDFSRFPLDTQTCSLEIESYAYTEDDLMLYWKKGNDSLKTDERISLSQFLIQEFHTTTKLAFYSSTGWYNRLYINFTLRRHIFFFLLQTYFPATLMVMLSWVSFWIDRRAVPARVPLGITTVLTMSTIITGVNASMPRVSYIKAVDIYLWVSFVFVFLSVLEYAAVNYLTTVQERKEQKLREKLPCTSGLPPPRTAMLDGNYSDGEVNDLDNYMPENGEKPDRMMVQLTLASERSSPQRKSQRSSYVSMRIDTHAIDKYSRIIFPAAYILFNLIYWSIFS
# Excerpt: (§2) Muscimol-biotin was synthesized wherein biotinamidoeaproic acid N-hydroxysuccinimide ester was reacted with muscimol in N-methylpyrrolidinone in the presence of diisopropylethylamine. The product was purified to homogeneity by reversed-phase HPLC. Peaks were detected by absorbance at 210 nm (FIG. 5), collected, and lyophilized to afford muscimol-biotin. The muscimol-biotin product was judged to be 97% pure by ^IH NMR spectroscopy, with no detectable contamination of the HPLC-purified product peak by muscimol (limit of detection: ca. 1%). Muscimol-biotin was dissolved in DMSO, stored at 3° C., and diluted to desired concentrations in frog Ringer before testing on the oocyte. Electrophysiology procedures used for Xenopus oocyte preparation, including GABAc expression, followed those described previously (Qian et al., 1998). Membrane currents were recorded from GABAc-expressing oocytes by 2-electrode voltage clamp apparatus. FIGS. 6-7 show results obtained for muscimol-biotin in GABAc and GABAA expressing oocytes.
# (§3) FIGS. 6 and 7 show the effects of muscimol-biotin on GABAc- and GABAA expressing Xenopus oocytes. […] Right (FIG. 7): GABAA receptors. […] (B) Responses of another oocyte to 2.5 μM muscimol-biotin alone, and to co-application of 2.5 μM muscimol-biotin and 100 μM bicuculline. (C) Family of responses to varying concentrations of muscimol-biotin and to a single, saturating concentration of muscimol (200 μM thick trace) recorded from a single oocyte. (D) Normalized peak amplitudes (mean±SEM) of responses recorded from GABAA-expressing oocytes upon the application of muscimol (open circles) and muscimol-biotin (filled circles) (n=9).
# GABAA receptors = assay: Two-electrode voltage clamp of GABAA-expressing Xenopus oocytes; type: cell-based; conditions: for Hill coefficient n: Hill fit of normalized peak amplitudes; for EC50: Hill fit of peak amplitudes normalized to saturating muscimol response
# Excerpt: as §2, §3
# [2] = molecular target: T3, α1β2γ2(A79C) GABAARs (γ-79C) (UniProt P18507+P62813+P63138, A118C); assay: Tethering to γ-79C GABAAR-expressing oocytes, voltage clamp; type: cell-based, rat, human
# T3 construct: expressed in transfected cells; host or cells: Xenopus laevis oocytes
# T3 sequence (P62813 28-455): as the sequence (P62813 28-455) above
# T3 sequence (P63138 25-474 limits assumed): as the sequence (P63138 25-474 limits assumed) above
# T3 sequence (P18507 40-467 isoform P18507-1 A118C limits assumed): as the sequence (P18507 40-467 isoform P18507-1 limits assumed) above, with A79C counted along it
# Experimental: as §1, with “μW/mm^2.” for “μW/mm^2. In all experiments, low-intensity visible light from the microscope illuminator (3 μW/mm^2 at 440 nm) was present at all times except those involving high-intensity visible illumination. Electrophysiological data were obtained using Clampex 8.2 (Axon Instruments), analyzed using Clampfit 10.0 (Axon Instruments) and OriginPro7.5 (OriginLab, Northampton, Mass.). All statistical analysis employed a two-sample t-test.”
# [3] = system: GABAARs of retinal ganglion cells; assay: Whole-cell patch clamp of isolated retinal ganglion cells; type: cell-based, rat; conditions: co-applied 100 μM PTX
# Experimental: To test whether native neuronal GABAARs respond to MPC088, retinal ganglion cells (RGCs), a cell type known to abundantly express GABAARs (Ishida et al. (1988); Fischer et al. (1998); Wässle et al. (1998); Rotolo et al. (2003)), were examined. […] The cis-dominant preparation was obtained by pre-treating trans-dominant MPC088 with UV light for 5 min.
# Inset: Aggregate data for direct activation by MPC088.
# Experiments were conducted on enzymatically dissociated ganglion cells obtained from adult Sprague-Dawley rats (male and female, 6-16 weeks of age) (Charles River Laboratories, Wilmington, Mass.). Procedures for euthanasia, isolation of the retina, and the dissociation of retinal cells were as described previously (Ramsey et al. (2007) except that the period of retinal cell dissociation was shortened from 40 min to 20 min. Isolated ganglion cells were identified on the basis of their morphological appearance and the presence of a large voltage-gated sodium current. Whole-cell patch-clamp techniques similar to those described (Ramsey et al. (2007)) were used to record membrane current responses to test agents. The patch pipette with a resistance of 8-12 MΩ was pulled in two stages using a micro-electrode puller (Model PP830, Narishige Group, Tokyo, Japan). The pipette was filled with an intracellular solution containing 95 mM CsCH3SO3, 20 mM TEA-Cl, 10 mM glutamic acid, 1 mM BAPTA, 10 mM HEPES, 8 mM phosphocreatine di(tris), 1 mM MgATP and 0.2 mM Na2GTP; pH adjusted to 7.2 with CsOH. Cells were clamped at 0 mV (Axopatch 200B amplifier; Axon Instruments), and experimental runs were controlled by pCLAMP system software (Axon Instruments). Electrophysiological data were obtained in response to test compounds dissolved in physiological saline (Ringer solution) that consisted of 135 mM NaCl, 5 mM KCl, 2 mM CaCl2, 2 mM MgCl2, 10 mM glucose, and 5 mM HEPES, pH 7.4. Supplementation of aqueous test solutions with MPC088 was carried out by adding an aliquot of a stock solution containing the compound dissolved in dimethyl sulfoxide (DMSO). In all experiments, the amount of carrier DMSO present in the applied test solution was <1% (v/v). Test solutions were delivered from separate reservoirs by a multi-channel perfusion system. The same UV-LED used in the oocyte experiments was used for UV illumination of MPC088-supplemented test solutions. For preparation of cis-dominant MPC088, the test solution of initially trans-dominant compound underwent a 5-min UV illumination prior to its placement in the perfusion reservoir. All preparative procedures were performed in the dark, and the reservoirs and perfusion lines were light-protected with aluminum foil. As in the oocyte experiments, data were analyzed with Clampfit and plotted with Origin. Unless otherwise stated, numerical data from replicate experiments are presented as mean±SD, and all statistical analyses of data obtained from oocytes and from retinal ganglion cells employed a two-sample t-test.
molecule,measurement,setting,value
"CC(C)c1cc(CCCC(=O)NCc2ccc(/N=N/c3ccc(C(=O)O)cc3)cc2)cc(C(C)C)c1O [compound 18, (E)-4-((4-((4-(4-hydroxy-3,5-diisopropylphenyl)butanamido)methyl)phenyl)diazenyl) benzoic acid]","electrophysiological activity of propofol analogs (FIG. 59), words",[1],strong GABAAR potentiation
"(E)-N-(2-Aminoethyl)-4-((4-((4-(4-hydroxy-3,5-diisopropylphenyl)butanamido)methyl)phenyl)diazenyl)benzamide [MPC088]","electrophysiological activity of propofol analogs (FIG. 59), words",[1],strong GABAAR potentiation
COC(=O)c1ccc(/N=N/c2ccc(CNC(=O)CCCc3cc(C(C)C)c(O)c(C(C)C)c3)cc2)cc1 [compound 9],"electrophysiological activity of propofol analogs (FIG. 59), words",[1],poor activity
O=C(CCCC[C@@H]1SC[C@@H]2NC(=O)N[C@@H]21)NCCCCCC(=O)NCc1cc(O)no1 [muscimol-biotin],Hill coefficient n,GABAc receptors,4.4
same,EC50,GABAc receptors,20 µM
same,Hill coefficient n,GABAA receptors,1.4
same,EC50,GABAA receptors,385 µM
CC(C)c1cc(CCCC(=O)O)cc(C(C)C)c1O [compound 8],"electrophysiological activity of propofol analogs (FIG. 59), words",[1],poor activity
methyl-(PEG)11-maleimide [reference compound],persistent increase in the 3 μM GABA response,"[2]; 1 mM, 10-min treatment",71±25%
"CC(C)c1cc(CCCC(=O)NCc2ccc(/N=N/c3ccc(C(=O)NCCNC(=O)CCOCCOCCOCCOCCOCCOCCOCCOCCOCCOCCOCCOCCOCCOCCOCCOCCOCCOCCOCCOCCOCCOCCOCCOCCNC(=O)CCN4C(=O)C=CC4=O)cc3)cc2)cc(C(C)C)c1O [MPC100, (E)-N-(82-(2,5-Dioxo-2,5-dihydro-1H-pyrrol-1-yl)-4,80-dioxo-7,10,13,16,19,22,25,28,31,34,37,40,43,46,49,52,55,58,61,64,67,70,73,76-tetracosaoxa-3,79-diazadooctacontyl)-4-((4-((4-(4-hydroxy-3,5-diisopropylphenyl)butanamido)methyl)phenyl)diazenyl)benzamide]",direct activation of wildtype receptors,"[1]; 10 μM, no GABA",negligible
same,potentiation of the GABA response,[1],smaller than that produced by equimolar trans-dominant MPC088
same,response to GABA after MPC100 treatment and Ringer perfusion,"[1]; wildtype receptors, 100 μM, 7 min",not significantly enhanced
same,ratio of 3 μM GABA response amplitudes post- vs. pre-MPC100 treatment,"[2]; 100 μM MPC100, 10 min, after methyl-(PEG)11-maleimide pre-treatment",1.1±0.1
same,potentiation after incubation and washout,"[2]; 100 μM, ~5-7 min, then Ringer superfusion",persistent potentiation of the GABA response
same,effect of tethering on potentiating action of diazepam,[2]; data not shown,eliminated the potentiating action of diazepam
"CC(C)c1cc(CCCC(=O)Oc2ccc(/N=N/c3ccccc3)cc2)cc(C(C)C)c1O [compound 14, (E)-4-(phenyldiazenyl) phenyl 4-(4-hydroxy-3,5-diisopropylphenyl) butanoate]","electrophysiological activity of propofol analogs (FIG. 59), words",[1],active
picrotoxin [reference compound],effect of antagonist on the MPC088-elicited response,"[1]; picrotoxin 100 μg, gabazine 30 μg, bicuculline 100 μM (so in the source)",eliminated
same,reduction of baseline current,[2]; PTX applied to cells treated with 100 μM MPC100 and washed,85±7%
same,reduction of the response to 2 μM GABA+10 μM trans-dominant MPC088,[3],94±1%
same,reduction of the response to 60 μM trans-dominant MPC088 alone,[3],95±2%
"NCc1cc(=O)[nH]o1 [muscimol, reference compound]",Hill coefficient n,GABAc receptors,1.2
same,EC50,GABAc receptors,2 µM
same,Hill coefficient n,GABAA receptors,0.74
same,EC50,GABAA receptors,4.8 µM
"CCCC(=O)NCc1ccc(/N=N/c2ccc(C(=O)NCCN)cc2)cc1 [MPD021, (E)-N-(2-Aminoethyl)-4-((4-(butyramidomethyl)phenyl)diazenyl)benzamide]",response amplitude relative to the 3 μM GABA response,[1]; 3 μM GABA + 10 μM compound,1.03±0.07
same,response amplitude relative to the 3 μM GABA response,[1]; 3 μM GABA + 100 μM compound,1.03±0.11
same,potentiation of the GABA response,[1],no potentiation of the GABA response
